Reference: patent US20060111410A1, “Microbicide substances” (priority 2002, published 2006)

Tests used:
[1] = tested on: Pseudomonas fluorescens; test: Synergism BIT/TMAD, amounts required to suppress growth; assay type: cell-based; details: compound applied on its own
Text: (§1) The observed synergism of the mixtures according to the invention can be determined by the following mathematical approach (cf. F. C. Kull, P. C. Elisman, H. D. Sylwestrowicz and P. K. Mayer, Appl. Microbiol. 9, 538 (1961): [formula] where • Qa=the amount of component A in the active compound mixture required to achieve the desired effect, i.e. no microbial growth, • QA=the amount of component A which, applied on its own, suppresses the growth of the microorganisms, • Qb=the amount of component B in the active compound mixture which supresses the growth of the microorganisms, and • QB=the amount of component B which, applied on its own, suppresses the growth of the microorganisms.
(§2) A synergistic index of SI<1 indicates a synergistic effect for the active compound mixture.
Test germ: Pseudomonas fluorescens
(§3) The numbers in brackets indicate the weight ratio of the active compounds in the mixtures. [formula] A=BIT/B=TMAD

[2] = tested on: Pseudomonas aeruginosa; test: as above; assay type: cell-based; details: compound applied on its own
Text: as §1, §2
Test germ: Pseudomonas aeruginosa
as §3

SMILES | Amounts of the pure active compounds required to suppress growth [1] | Amounts of the pure active compounds required to suppress growth [2]
O=C1N(CO)C2C(N1CO)N(CO)C(=O)N2CO (stereo not shown) [TMAD, tetramethylolacetylenediurea] | 500 ppm | 500 ppm
O=c1[nH]sc2ccccc12 [BIT, 1,2-benzisothiazolinone] | 20 ppm | 20 ppm
